Reference: the supplement of paper PMC10307832

Experiments:
Assay in all cases: relative viability (nuclei count vs DMSO), 5 days (fraction); higher = more cells survive
AZD1208 + OSI-027 = compound: N[C@@H]1CCCN(c2c(/C=C3\SC(=O)NC3=O)cccc2-c2ccccc2)C1 [AZD1208] + COc1cccc2cc(-c3nc([C@H]4CC[C@H](C(=O)O)CC4)n4ncnc(N)c34)[nH]c12 [OSI-027] (partner 0.5 µM)
Procedure, shortened: (§1)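 Relative viability was taken as the ratio of nuclei in treated wells to nuclei in vehicle wells. Lung cancer cell lines in 1536-well plates received compounds by pin tool one day after seeding, either one drug alone or a fixed anchor-drug dose plus five library-drug doses (not always all listed) in √10 steps. Nuclei were counted on 4× images after 5 days of treatment, and values are medians of duplicate plates.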

AZD1208 + AZD7762 = compound: N[C@@H]1CCCN(c2c(/C=C3\SC(=O)NC3=O)cccc2-c2ccccc2)C1 [AZD1208] + NC(=O)Nc1cc(-c2cccc(F)c2)sc1C(=O)N[C@H]1CCCNC1 [AZD7762] (partner 0.2 µM)
Procedure, shortened: as §1

XMD14-99 + Luminespib = compound: CN1CCN(CC1)C2=CC(=C(C=C2)NC3=NC(=C(S3)C(=O)C4=C(C=CC=C4Cl)Cl)N)OC [XMD14-99] + CCNC(=O)c1noc(-c2cc(C(C)C)c(O)cc2O)c1-c1ccc(CN2CCOCC2)cc1 [Luminespib] (partner 0.01 µM)
Procedure, shortened: as §1

XMD14-99 + Pictilisib = compound: CN1CCN(CC1)C2=CC(=C(C=C2)NC3=NC(=C(S3)C(=O)C4=C(C=CC=C4Cl)Cl)N)OC [XMD14-99] + CS(=O)(=O)N1CCN(Cc2cc3nc(-c4cccc5[nH]ncc45)nc(N4CCOCC4)c3s2)CC1 [Pictilisib] (partner 1 µM)
Procedure, shortened: as §1

NCI-H1755 was tested, and the relative viability (AZD1208 + OSI-027; first compound 0.08 µM) was 0.69, the relative viability (AZD1208 + OSI-027; first compound 0.253 µM) was 0.617 and the relative viability (AZD1208 + OSI-027; first compound 0.8 µM) was 0.582. For the same cell line, the relative viability (AZD1208 + OSI-027; first compound 2.53 µM) was 0.59, the relative viability (AZD1208 + OSI-027; first compound 8 µM) was 0.437 and the relative viability (AZD1208 + AZD7762; first compound 0.08 µM) was 0.509. The relative viability (AZD1208 + AZD7762; first compound 0.253 µM) was 0.577, the relative viability (AZD1208 + AZD7762; first compound 0.8 µM) was 0.455 and the relative viability (AZD1208 + AZD7762; first compound 2.53 µM) was 0.446. For the same cell line, the relative viability (AZD1208 + AZD7762; first compound 8 µM) was 0.448, the relative viability (XMD14-99 + Luminespib; first compound 0.08 µM) was 0.464 and the relative viability (XMD14-99 + Luminespib; first compound 0.8 µM) was 0.396. The relative viability (XMD14-99 + Luminespib; first compound 2.53 µM) was 0.305, the relative viability (XMD14-99 + Luminespib; first compound 8 µM) was 0.369 and the relative viability (XMD14-99 + Pictilisib; first compound 0.08 µM) was 0.404. For the same cell line, the relative viability (XMD14-99 + Pictilisib; first compound 0.8 µM) was 0.401, the relative viability (XMD14-99 + Pictilisib; first compound 2.53 µM) was 0.426 and the relative viability (XMD14-99 + Pictilisib; first compound 8 µM) was 0.295.

Cell Line NCI-H1792 has a relative viability (AZD1208 + OSI-027; first compound 0.08 µM) of 0.679, a relative viability (AZD1208 + OSI-027; first compound 0.253 µM) of 0.778 and a relative viability (AZD1208 + OSI-027; first compound 0.8 µM) of 0.614. The relative viability (AZD1208 + OSI-027; first compound 2.53 µM) was 0.607, the relative viability (AZD1208 + OSI-027; first compound 8 µM) was 0.61 and the relative viability (AZD1208 + AZD7762; first compound 0.08 µM) was 0.815. For the same cell line, the relative viability (AZD1208 + AZD7762; first compound 0.253 µM) was 0.739, the relative viability (AZD1208 + AZD7762; first compound 2.53 µM) was 0.593 and the relative viability (AZD1208 + AZD7762; first compound 8 µM) was 0.56. For the same cell line, the relative viability (XMD14-99 + Luminespib; first compound 0.08 µM) was 0.543, the relative viability (XMD14-99 + Luminespib; first compound 0.8 µM) was 0.456 and the relative viability (XMD14-99 + Luminespib; first compound 2.53 µM) was 0.354. It also gave a relative viability (XMD14-99 + Luminespib; first compound 8 µM) of 0.326, a relative viability (XMD14-99 + Pictilisib; first compound 0.08 µM) of 0.281 and a relative viability (XMD14-99 + Pictilisib; first compound 0.8 µM) of 0.252. It also gave a relative viability (XMD14-99 + Pictilisib; first compound 2.53 µM) of 0.22 and a relative viability (XMD14-99 + Pictilisib; first compound 8 µM) of 0.182.

NCI-H1793 was tested, and the relative viability (AZD1208 + OSI-027; first compound 0.08 µM) was 0.244, the relative viability (AZD1208 + OSI-027; first compound 0.253 µM) was 0.254 and the relative viability (AZD1208 + OSI-027; first compound 0.8 µM) was 0.268. For the same cell line, the relative viability (AZD1208 + OSI-027; first compound 2.53 µM) was 0.31, the relative viability (AZD1208 + OSI-027; first compound 8 µM) was 0.25 and the relative viability (AZD1208 + AZD7762; first compound 0.08 µM) was 0.599. For the same cell line, the relative viability (AZD1208 + AZD7762; first compound 0.253 µM) was 0.611, the relative viability (AZD1208 + AZD7762; first compound 0.8 µM) was 0.403 and the relative viability (AZD1208 + AZD7762; first compound 2.53 µM) was 0.482. The relative viability (AZD1208 + AZD7762; first compound 8 µM) was 0.401, the relative viability (XMD14-99 + Luminespib; first compound 0.08 µM) was 0.232 and the relative viability (XMD14-99 + Luminespib; first compound 0.8 µM) was 0.184. The relative viability (XMD14-99 + Luminespib; first compound 2.53 µM) was 0.499, the relative viability (XMD14-99 + Luminespib; first compound 8 µM) was 0.25 and the relative viability (XMD14-99 + Pictilisib; first compound 0.08 µM) was 0.423. For the same cell line, the relative viability (XMD14-99 + Pictilisib; first compound 0.8 µM) was 0.289, the relative viability (XMD14-99 + Pictilisib; first compound 2.53 µM) was 0.368 and the relative viability (XMD14-99 + Pictilisib; first compound 8 µM) was 0.333.

NCI-H1915 gave a relative viability (AZD1208 + OSI-027; first compound 0.08 µM) of 0.571, a relative viability (AZD1208 + OSI-027; first compound 0.253 µM) of 0.524 and a relative viability (AZD1208 + OSI-027; first compound 0.8 µM) of 0.569. For the same cell line, the relative viability (AZD1208 + OSI-027; first compound 2.53 µM) was 0.428, the relative viability (AZD1208 + OSI-027; first compound 8 µM) was 0.451 and the relative viability (AZD1208 + AZD7762; first compound 0.08 µM) was 0.642. It also gave a relative viability (AZD1208 + AZD7762; first compound 0.253 µM) of 0.76, a relative viability (AZD1208 + AZD7762; first compound 0.8 µM) of 0.766 and a relative viability (AZD1208 + AZD7762; first compound 2.53 µM) of 0.778. It also gave a relative viability (AZD1208 + AZD7762; first compound 8 µM) of 0.673, a relative viability (XMD14-99 + Luminespib; first compound 0.08 µM) of 0.745 and a relative viability (XMD14-99 + Luminespib; first compound 0.8 µM) of 0.72. The relative viability (XMD14-99 + Luminespib; first compound 2.53 µM) was 0.754, the relative viability (XMD14-99 + Luminespib; first compound 8 µM) was 0.61 and the relative viability (XMD14-99 + Pictilisib; first compound 0.08 µM) was 0.927. It also gave a relative viability (XMD14-99 + Pictilisib; first compound 0.8 µM) of 0.934, a relative viability (XMD14-99 + Pictilisib; first compound 2.53 µM) of 0.902 and a relative viability (XMD14-99 + Pictilisib; first compound 8 µM) of 0.595.

With NCI-H1944 the relative viability (AZD1208 + OSI-027; first compound 0.08 µM) was 0.407, the relative viability (AZD1208 + OSI-027; first compound 0.253 µM) was 0.341 and the relative viability (AZD1208 + OSI-027; first compound 0.8 µM) was 0.305. It also gave a relative viability (AZD1208 + OSI-027; first compound 2.53 µM) of 0.282, a relative viability (AZD1208 + OSI-027; first compound 8 µM) of 0.249 and a relative viability (AZD1208 + AZD7762; first compound 0.08 µM) of 0.494. The relative viability (AZD1208 + AZD7762; first compound 0.253 µM) was 0.693, the relative viability (AZD1208 + AZD7762; first compound 0.8 µM) was 0.442 and the relative viability (AZD1208 + AZD7762; first compound 2.53 µM) was 0.5. It also gave a relative viability (AZD1208 + AZD7762; first compound 8 µM) of 0.395, a relative viability (XMD14-99 + Luminespib; first compound 0.08 µM) of 0.672 and a relative viability (XMD14-99 + Luminespib; first compound 0.8 µM) of 0.754. It also gave a relative viability (XMD14-99 + Luminespib; first compound 2.53 µM) of 0.533, a relative viability (XMD14-99 + Luminespib; first compound 8 µM) of 0.575 and a relative viability (XMD14-99 + Pictilisib; first compound 0.08 µM) of 0.325. The relative viability (XMD14-99 + Pictilisib; first compound 0.8 µM) was 0.335, the relative viability (XMD14-99 + Pictilisib; first compound 2.53 µM) was 0.337 and the relative viability (XMD14-99 + Pictilisib; first compound 8 µM) was 0.269.
